{
  "source": "patent US8906925B2",
  "about": "“Pyrido[4,3-B]indoles containing rigid moieties” (Medivation Technologies, Inc., priority 2008, dated 2014)",
  "key": {"histamine receptor H1": {"biological_target": "histamine receptor H1 (Homo sapiens, UniProt P35367)", "sequence (P35367 whole entry)": "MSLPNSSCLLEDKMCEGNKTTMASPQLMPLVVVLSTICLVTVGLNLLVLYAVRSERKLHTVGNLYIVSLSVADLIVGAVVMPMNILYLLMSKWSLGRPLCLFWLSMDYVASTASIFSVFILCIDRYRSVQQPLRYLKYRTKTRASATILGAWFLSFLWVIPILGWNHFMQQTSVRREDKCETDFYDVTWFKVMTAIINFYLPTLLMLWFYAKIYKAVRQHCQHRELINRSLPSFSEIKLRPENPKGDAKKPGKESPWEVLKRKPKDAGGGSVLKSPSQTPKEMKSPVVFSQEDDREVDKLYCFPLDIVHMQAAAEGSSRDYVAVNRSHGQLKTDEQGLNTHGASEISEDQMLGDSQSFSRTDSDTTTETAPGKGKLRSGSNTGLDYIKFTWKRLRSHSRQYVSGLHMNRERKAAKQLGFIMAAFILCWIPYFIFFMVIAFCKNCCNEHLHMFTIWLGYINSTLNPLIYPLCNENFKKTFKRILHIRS", "assay": "Histamine H1 radioligand binding ([3H]Pyrilamine)", "conditions": "read-out: Histamine Binding (1 μM) H1, percent inhibition of specific binding, 1 μM", "summary_of_the_method": "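Values are percent inhibition of specific [3H]pyrilamine (1.2 nM) binding with compounds at ≤1 μM (1% DMSO vehicle); 180 min incubation at 25 °C, pH 7.4 Tris buffer, on CHO-expressed human H1 receptor; 1 μM pyrilamine defined nonspecific binding, bound ligand counted after filtration.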"}, "[1]": {"biological_target": "T1, human recombinant adrenergic α1D receptor (Homo sapiens, UniProt P25100)", "T1 construct": "expressed in transfected cells; host or cells: human embryonic kidney (HEK-293) cells", "T1 sequence (P25100 1-572)": "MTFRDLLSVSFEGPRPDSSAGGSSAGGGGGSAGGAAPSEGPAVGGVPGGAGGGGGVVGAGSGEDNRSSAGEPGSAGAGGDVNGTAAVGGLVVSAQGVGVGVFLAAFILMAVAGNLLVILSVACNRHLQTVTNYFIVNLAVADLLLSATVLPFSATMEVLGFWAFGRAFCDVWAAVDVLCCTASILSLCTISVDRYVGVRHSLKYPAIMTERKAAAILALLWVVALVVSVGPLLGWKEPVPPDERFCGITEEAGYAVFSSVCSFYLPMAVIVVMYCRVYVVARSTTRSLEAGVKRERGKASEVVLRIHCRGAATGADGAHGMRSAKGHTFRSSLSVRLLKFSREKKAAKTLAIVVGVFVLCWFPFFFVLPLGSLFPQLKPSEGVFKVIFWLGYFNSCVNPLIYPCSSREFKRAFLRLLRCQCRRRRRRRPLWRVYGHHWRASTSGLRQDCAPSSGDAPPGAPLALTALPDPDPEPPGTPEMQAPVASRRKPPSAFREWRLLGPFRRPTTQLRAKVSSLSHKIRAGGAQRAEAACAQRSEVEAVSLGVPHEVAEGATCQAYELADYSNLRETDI", "assay": "Adrenergic α1D radioligand binding ([3H]Prozosin)", "conditions": "compound at 1 μM", "protocol": "Compounds of invention were incubated with 0.6 nM [^3H]Prozosin for 60 min. at 25° C. Non-specific binding was estimated in the presence of 10 μM phentolamine. Receptor proteins were filtered and washed, the filters were then counted to determine [^3H]Prozosin specifically bound. Compounds were screened at 1 μM or lower, using 1% DMSO as vehicle. Biochemical assay results are presented as the percent inhibition of specific binding in Table 9."}, "[2]": {"biological_target": "human dopamine D2L receptor (Homo sapiens, UniProt P14416)", "sequence (P14416 whole entry)": "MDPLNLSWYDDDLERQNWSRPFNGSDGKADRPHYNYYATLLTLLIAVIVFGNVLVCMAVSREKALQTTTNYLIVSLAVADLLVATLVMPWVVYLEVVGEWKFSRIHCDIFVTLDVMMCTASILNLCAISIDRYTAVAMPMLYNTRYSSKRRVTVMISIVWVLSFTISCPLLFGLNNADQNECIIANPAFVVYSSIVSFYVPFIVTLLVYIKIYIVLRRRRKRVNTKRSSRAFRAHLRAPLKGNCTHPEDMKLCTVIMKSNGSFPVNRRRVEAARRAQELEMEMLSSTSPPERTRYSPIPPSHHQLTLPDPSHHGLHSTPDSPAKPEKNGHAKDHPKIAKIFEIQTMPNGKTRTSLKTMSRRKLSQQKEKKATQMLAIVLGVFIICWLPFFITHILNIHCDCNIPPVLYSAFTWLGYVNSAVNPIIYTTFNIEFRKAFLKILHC", "assay": "Dopamine D2L radioligand binding ([3H]Spiperone)", "conditions": "compound at 1 μM", "from_the_text": "Non-specific binding was estimated in the presence of […] Haloperidol. Receptor proteins were filtered and washed, the filters were then counted to determine [^3H]Spiperone specifically bound. […] Biochemical assay results are presented as the percent inhibition of specific binding in Table 9."}, "[3]": {"biological_target": "T2, human recombinant serotonin (5-Hydroxytryptamine) 5-HT2A receptor (Homo sapiens, UniProt P28223)", "T2 construct": "expressed in transfected cells; host or cells: Chinese hamster ovary (CHO-K1) cells", "T2 sequence (P28223 whole entry)": "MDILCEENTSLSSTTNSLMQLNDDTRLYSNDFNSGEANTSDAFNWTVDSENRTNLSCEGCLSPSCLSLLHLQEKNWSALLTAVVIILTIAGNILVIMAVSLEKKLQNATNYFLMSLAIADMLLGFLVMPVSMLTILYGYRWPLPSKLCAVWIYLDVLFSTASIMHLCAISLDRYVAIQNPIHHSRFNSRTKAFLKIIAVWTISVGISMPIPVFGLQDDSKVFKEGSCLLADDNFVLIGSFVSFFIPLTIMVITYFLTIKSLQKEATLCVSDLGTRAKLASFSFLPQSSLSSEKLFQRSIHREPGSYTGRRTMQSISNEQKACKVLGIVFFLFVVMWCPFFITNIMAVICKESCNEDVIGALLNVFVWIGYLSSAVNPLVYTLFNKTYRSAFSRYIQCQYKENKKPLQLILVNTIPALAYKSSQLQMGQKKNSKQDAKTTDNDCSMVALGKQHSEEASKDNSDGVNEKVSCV", "assay": "Serotonin 5-HT2A radioligand binding ([3H]Ketanserin)", "conditions": "read-out: Inhibition of ligand binding, Serotonin 5-HT2A (percent inhibition of specific binding), compound at 1 μM", "protocol": "Compounds of the invention were incubated with 0.5 nM [^3H]Ketanserin for 60 min. at 25° C. Non-specific binding was estimated in the presence of 1 μM Mianserin. Receptor proteins were filtered and washed, the filters were then counted to determine [^3H]Ketanserin specifically bound."}, "[4]": {"biological_target": "T3, human recombinant serotonin (5-Hydroxytryptamine) 5-HT2C receptor (Homo sapiens, UniProt P28335)", "T3 construct": "expressed in transfected cells; host or cells: Chinese hamster ovary (CHO-K1) cells", "T3 sequence (P28335 33-458)": "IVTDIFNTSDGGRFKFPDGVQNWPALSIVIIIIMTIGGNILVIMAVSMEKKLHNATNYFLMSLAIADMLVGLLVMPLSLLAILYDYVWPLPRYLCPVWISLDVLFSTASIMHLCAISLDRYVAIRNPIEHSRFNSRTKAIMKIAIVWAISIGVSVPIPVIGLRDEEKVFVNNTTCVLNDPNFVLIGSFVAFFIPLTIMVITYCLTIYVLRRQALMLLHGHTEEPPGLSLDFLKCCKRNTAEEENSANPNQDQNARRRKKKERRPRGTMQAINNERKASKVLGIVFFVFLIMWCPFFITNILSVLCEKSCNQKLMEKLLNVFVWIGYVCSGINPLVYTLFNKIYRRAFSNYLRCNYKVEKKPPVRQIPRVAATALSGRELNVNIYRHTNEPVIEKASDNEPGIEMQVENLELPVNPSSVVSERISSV", "assay": "Serotonin 5-HT2C radioligand binding ([3H]Mesulergine)", "conditions": "compound at 1 μM; read-out: Inhibition of ligand binding, Serotonin 5-HT2C (percent inhibition of specific binding)", "summary_of_the_method": "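Compounds tested at 1 μM or lower (1% DMSO vehicle) for displacement of 1 nM [3H]Mesulergine over 60 min at 25° C. Specific binding determined by filtration counting, with 1 μM Mianserin defining non-specific binding; values are percent inhibition.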"}, "[5]": {"biological_target": "human recombinant serotonin (5-Hydroxytryptamine) 5-HT7 receptor (Homo sapiens, UniProt P34969)", "sequence (P34969 whole entry)": "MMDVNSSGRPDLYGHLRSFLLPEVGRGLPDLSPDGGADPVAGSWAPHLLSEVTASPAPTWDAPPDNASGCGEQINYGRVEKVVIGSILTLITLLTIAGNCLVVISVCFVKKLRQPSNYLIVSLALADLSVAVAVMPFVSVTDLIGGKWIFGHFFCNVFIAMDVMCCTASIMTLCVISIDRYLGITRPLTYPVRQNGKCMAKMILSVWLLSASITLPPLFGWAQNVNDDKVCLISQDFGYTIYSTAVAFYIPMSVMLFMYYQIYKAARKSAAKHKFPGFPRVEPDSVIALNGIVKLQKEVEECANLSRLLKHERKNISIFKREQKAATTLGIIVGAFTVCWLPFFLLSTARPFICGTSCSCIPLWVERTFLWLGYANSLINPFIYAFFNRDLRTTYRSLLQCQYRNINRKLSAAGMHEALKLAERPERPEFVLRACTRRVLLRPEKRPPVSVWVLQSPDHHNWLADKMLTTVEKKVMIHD", "assay": "Serotonin 5-HT7 radioligand binding ([3H]LSD)", "conditions": "compound at 1 μM; read-out: Inhibition of ligand binding, Serotonin 5-HT7 (percent inhibition of specific binding)", "from_the_text": "Receptor proteins were filtered and washed, the filters were then counted to determine [^3H]LSD specifically bound."}, "[6]": {"conditions": "percent inhibition of specific binding, read-out: Inhibition of ligand binding, Adrenergic α1D"}, "[7]": {"conditions": "percent inhibition of specific binding, read-out: Inhibition of ligand binding, Dopamine D2L"}},
  "note": "Read-outs that look alike come from different tables or passages of the source.",
  "data": [
    {"smiles": "CN1CCc2c(c3cc(Cl)ccc3n2C/C=C/c2ccc(F)cc2)C1", "note": "[Compound 126, 5-(4-fluorocinnamyl)-8-chloro-2,3,4,5-tetrahydro-2-methyl-1H-pyrido[4,3-b]indole]", "values": [
      {"measurement": "inhibition at 1 µM", "setting": "histamine receptor H1", "result": 103, "unit": "%"},
      {"measurement": "inhibition at 1 µM", "setting": "[1]; [6]", "result": 50, "unit": "%"},
      {"measurement": "inhibition at 1 µM", "setting": "[2]; [7]", "result": 84, "unit": "%"},
      {"measurement": "inhibition at 1 µM", "setting": "[3]", "result": 102, "unit": "%"},
      {"measurement": "inhibition at 1 µM", "setting": "[4]", "result": 84, "unit": "%"}
    ]},
    {"smiles": "CN1CCc2c(c3cc(Cl)ccc3n2C/C=C/c2ccncc2)C1", "note": "[Compound 127, 8-chloro-2,3,4,5-tetrahydro-2-methyl-5-((E)-3-(pyridin-4-yl)allyl)-1H-pyrido[4,3-b]indole]", "values": [
      {"measurement": "inhibition at 1 µM", "setting": "histamine receptor H1", "result": 100, "unit": "%"},
      {"measurement": "inhibition at 1 µM", "setting": "[1]; [6]", "result": 46, "unit": "%"},
      {"measurement": "inhibition at 1 µM", "setting": "[2]; [7]", "result": 10, "unit": "%"},
      {"measurement": "inhibition at 1 µM", "setting": "[3]", "result": 84, "unit": "%"},
      {"measurement": "inhibition at 1 µM", "setting": "[4]", "result": 72, "unit": "%"}
    ]},
    {"smiles": "C=C(Cn1c2c(c3cc(Cl)ccc31)CN(C)CC2)c1cccnc1", "note": "[Compound 133, 8-chloro-2,3,4,5-tetrahydro-2-methyl-5-(2-(pyridin-3-yl)allyl)-1H-pyrido[4,3-b]indole]", "values": [
      {"measurement": "inhibition at 1 µM", "setting": "histamine receptor H1", "result": 101, "unit": "%"},
      {"measurement": "inhibition at 1 µM", "setting": "[1]; [6]", "result": 55, "unit": "%"},
      {"measurement": "inhibition at 1 µM", "setting": "[2]; [7]", "result": 29, "unit": "%"},
      {"measurement": "inhibition at 1 µM", "setting": "[3]", "result": 96, "unit": "%"},
      {"measurement": "inhibition at 1 µM", "setting": "[4]", "result": 96, "unit": "%"}
    ]},
    {"smiles": "C=C(Cn1c2c(c3cc(Cl)ccc31)CN(C)CC2)c1ccc(C)nc1", "note": "[Compound 136, 8-chloro-2,3,4,5-tetrahydro-2-methyl-5-(2-(6-methylpyridin-3-yl)allyl)-1H-pyrido[4,3-b]indole]", "values": [
      {"measurement": "inhibition at 1 µM", "setting": "histamine receptor H1", "result": 99, "unit": "%"},
      {"measurement": "inhibition at 1 µM", "setting": "[1]; [6]", "result": 70, "unit": "%"},
      {"measurement": "inhibition at 1 µM", "setting": "[2]; [7]", "result": 54, "unit": "%"},
      {"measurement": "inhibition at 1 µM", "setting": "[3]", "result": 100, "unit": "%"},
      {"measurement": "inhibition at 1 µM", "setting": "[4]", "result": 93, "unit": "%"}
    ]},
    {"smiles": "C=C(Cn1c2c(c3cc(Cl)ccc31)CN(C)CC2)c1ccc(OC)c(F)c1", "note": "[Compound 140, 8-chloro-5-(2-(3-fluoro-4-methoxyphenyl)allyl)-2,3,4,5-tetrahydro-2-methyl-1H-pyrido[4,3-b]indole]", "values": [
      {"measurement": "inhibition at 1 µM", "setting": "histamine receptor H1", "result": 98, "unit": "%"},
      {"measurement": "inhibition at 1 µM", "setting": "[1]; [6]", "result": 84, "unit": "%"},
      {"measurement": "inhibition at 1 µM", "setting": "[2]; [7]", "result": 57, "unit": "%"},
      {"measurement": "inhibition at 1 µM", "setting": "[3]", "result": 98, "unit": "%"},
      {"measurement": "inhibition at 1 µM", "setting": "[4]", "result": 98, "unit": "%"}
    ]},
    {"smiles": "COc1ccc(C(C)(O)Cn2c3c(c4cc(C)ccc42)CN(C)CC3)cc1F", "note": "(stereo not drawn) [Compound 173, 1-(2,8-dimethyl-3,4-dihydro-1H-pyrido[4,3-b]indol-5(2H)-yl)-2-(3-fluoro-4-methoxyphenyl)propan-2-ol]", "values": [
      {"measurement": "inhibition at 1 µM", "setting": "histamine receptor H1", "result": 91, "unit": "%"},
      {"measurement": "inhibition at 1 µM", "setting": "[1]; [6]", "result": 58, "unit": "%"},
      {"measurement": "inhibition at 1 µM", "setting": "[2]; [7]", "result": 32, "unit": "%"},
      {"measurement": "inhibition at 1 µM", "setting": "[4]", "result": 98, "unit": "%"},
      {"measurement": "inhibition at 1 µM", "setting": "[5]", "result": 103, "unit": "%"}
    ]},
    {"smiles": "CN1CCc2c(c3cc(Cl)ccc3n2C2=C(c3cccnc3)CCCC2)C1", "note": "[Compound No. 166, 8-chloro-2-methyl-5-(2-(pyridin-3-yl)cyclohex-1-enyl)-2,3,4,5-tetrahydro-1H-pyrido[4,3-b]indole]", "values": [
      {"measurement": "inhibition at 1 µM", "setting": "histamine receptor H1", "result": 14, "unit": "%"},
      {"measurement": "inhibition at 1 µM", "setting": "[1]; [6]", "result": 28, "unit": "%"},
      {"measurement": "inhibition at 1 µM", "setting": "[2]; [7]", "result": -2, "unit": "%"},
      {"measurement": "inhibition at 1 µM", "setting": "[3]", "result": 46, "unit": "%"},
      {"measurement": "inhibition at 1 µM", "setting": "[4]", "result": 46, "unit": "%"}
    ]},
    {"smiles": "CN1CCc2c(c3cc(Cl)ccc3n2C#Cc2ccc(F)cc2)C1", "note": "[Compound No. 475, 8-chloro-5-((4-fluorophenyl)ethynyl)-2-methyl-2,3,4,5-tetrahydro-1H-pyrido[4,3-b]indole]", "values": [
      {"measurement": "inhibition at 1 µM", "setting": "histamine receptor H1", "result": 34, "unit": "%"},
      {"measurement": "inhibition at 1 µM", "setting": "[1]; read-out: Inhibition of ligand binding, Adrenergic α1D (percent inhibition of specific binding)", "result": 91, "unit": "%"},
      {"measurement": "inhibition at 1 µM", "setting": "[2]; […] [3H]Spiperone, read-out: Inhibition of ligand binding, Dopamine D2L (percent inhibition of specific binding)", "result": 95, "unit": "%"},
      {"measurement": "inhibition at 1 µM", "setting": "[3]", "result": 99, "unit": "%"},
      {"measurement": "inhibition at 1 µM", "setting": "[4]", "result": 96, "unit": "%"}
    ]},
    {"smiles": "Cc1ccc2c(c1)c1c(n2/C=C/c2ccc(C)nc2)CCN(C)C1", "note": "[compound 95, 2,3,4,5-tetrahydro-2,8-dimethyl-5-((E)-2-(6-methylpyridin-3-yl)vinyl)-1H-pyrido[4,3-b]indole]", "values": [
      {"measurement": "inhibition at 1 µM", "setting": "histamine receptor H1", "result": 85, "unit": "%"},
      {"measurement": "inhibition at 1 µM", "setting": "[1]; [6]", "result": 89, "unit": "%"},
      {"measurement": "inhibition at 1 µM", "setting": "[2]; [7]", "result": 17, "unit": "%"},
      {"measurement": "inhibition at 1 µM", "setting": "[3]", "result": 91, "unit": "%"},
      {"measurement": "inhibition at 1 µM", "setting": "[4]", "result": 91, "unit": "%"}
    ]}
  ]
}
